Results published in patent publication US20080051464A1, “Protein phosphatase inhibitors” (The Cleveland Clinic Foundation, priority 2006, published 2008).

Experiments:
[1] = test system: spleen pLck and IFNγ+ cells; test: in vivo induction of spleen pLck and IFNγ+ cells in mice; design: species or system mouse
Protocol: Spleens were harvested one hour post-treatment on day 4 and processed into splenocytes, which were used for assessing pLck levels by SDS-PAGE/Western blotting and for quantification of IFNγ+ cells by ELISPOT assays. Mice were also treated with L5 (˜10 mg/kg body weight, daily, s.c., n=2) to evaluate the toxicity of the compounds in vivo.

B16 melanoma tumors = test: B16 melanoma tumor growth in athymic nude mice; type: in vivo, mouse; details: 3 mg/kg/day, oral, M-F/week
Protocol: To assess L5 anti-tumor activity, C57BL/6J mice or athymic nude mice (˜8-week old, female, Taconic Farms, Germantown, N.Y.) were inoculated (s.c.) at the flanks with B16 melanoma cells (4×10^4 cells/site). Four days post-inoculation, the mice were treated with PBS (Control) or L5 (˜3 mg/kg body weight/daily, Monday—Friday/week, oral gavage). Tumor volume (n=5) was measured during the study period and calculated using the formula for a prolate spheroid. Student's t test was used for assessing the significance of tumor volume differences among differential treatment groups. Mouse viability (daily) and body weights (weekly) were also recorded during the study period. Major internal organs of the mice were inspected visually upon their termination at the end of the experiment.

pERK1/2 in Jurkat cells = pERK1/2 in Jurkat cells (Western blotting); type: cell-based, human
Protocol: (§1) Jurkat cells in culture medium (3×10^6 cells/ml, 1 ml/tube) were treated with agents for designated times at room temperature. After brief centrifuging in a microfuge (4,000 rpm, 2 min), the cell pellet was lysed on ice for 30 min in 100 μl of cold lysis buffer (1% NP40, 50 mM Tris, pH 7.4, 150 mM NaCl, 20 mM NaF, 0.2 mM Na3VO4 and 1 mM Na3MO4) containing a cocktail of proteinase inhibitors (Sigma, 1 tablet/10 ml). The lysates were cleared by centrifuging (14,000 rpm, 10 min) in a microfuge at 4° C. to remove insoluble parts, mixed with equal volume of 2×SDS-PAGE sample buffer, boiled for 5 min and analyzed (˜3×10^5 cells/well) by SDS-PAGE/Western blotting. Relative intensities of phosphotyrosine bands were quantified through densitometry analysis.
as §1, with “blotting as described previously (17, 18).” for “blotting.”

[2] = test system: SHP-1 substrate pLck-pY394 in Jurkat T cells; test: induction of pLck-pY394 in Jurkat cells (SDS-PAGE/Western blotting); type: cell-based, human
Protocol: as §1
as §1, with “blotting as described previously (23, 24).” for “blotting.”
as §1, with “blotting as described previously (17, 18).” for “blotting.”

## O=C1C=CC(=O)C(c2cc(Cl)ccc2Cl)=C1 [L5]
[1]; 1 mg/kg of body weight
  effect on pLck: only a minor effect
[1]; ~3 mg/kg of body weight, s.c., daily, 4 days
  increase of splenocyte pLck: ~3.3 fold
[1]; ~3 mg/kg, s.c., daily, 4 days
  increase of spleen IFNγ+ cells: approximately 3 fold
B16 melanoma tumors
  B16 melanoma tumors in athymic nude mice: not inhibited
pERK1/2 in Jurkat cells; 1 μg/ml
  levels of pERK1/2: reduced the levels of pERK1/2
pERK1/2 in Jurkat cells; 10-100 ng/ml in Jurkat cells
  effect on SHP-2 or CD45 phosphatases: did not affect
pERK1/2 in Jurkat cells; lower doses (0.1 to 0.001 μg/ml)
  levels of pERK1/2: not at lower doses
[2]
  level capable of inhibiting SHP-1 in Jurkat T cells: 10 ng/mL
  level capable of inhibiting SHP-1 in Jurkat T cells (molar): ~40 nM
[2]; 0.01 μg/ml, 10 min
  pLck-pY394 induction: 2-3 fold
[2]; 0.1, 1 or 3 μg/ml, 10 min
  pLck-pY394 induction: > 4 folds
[2]; Jurkat cells, 10 min
  effective dose for pLck-pY394 induction / intracellular SHP-1 inhibition: ≥ 0.01 μg/ml
[2]; Jurkat cells, 10 min, densitometry (FIG. 2)
  pLck-pY394 induction in comparison to untreated control: ~10 fold
[2]; by weight
  potency relative to SSG: approximately 1,000 fold
[2]; in equal molar ratios
  potency relative to SSG: ~350 fold
